1 molecule from US10766873B2, “Zuclopenthixol hydrochloride derivatives and Ebselen derivatives as ErbB2 inhibitors” (Centre National de la Recherche Scientifique (CNRS), priority 2016, dated 2020) can be followed below.

SMILES strings stand for the structures. pEC50, pIC50: −log10 of the molar value.

Assay [1] addresses T1, FERM/ErbB2 interaction (Ezrin FERM domain / juxtamembrane ErbB2 peptide) (Homo sapiens, UniProt P04626).
T1 construct: made in house
Nature of the assay: AlphaScreen competition assay, FERM/ErbB2 interaction. Format: binding. Particulars: 1 h. An excerpt: To validate that the Zuclopenthixol hydrochloride (ZU) and its derivatives interact with the juxtamembrane domain of ErbB2, we first analyzed in AlphaScreen® their efficiency to inhibit FERM/ErbB2 interaction in a dose-dependent manner and determined IC50 value. Furthermore, to test the selectivity of those compounds, we tested their ability to disrupt the interaction between the FERM domain and the known ERM binding motif contained in the juxtamembrane region of CD44 as a control.
AlphaScreen® technology was used to assess the interaction between the Ezrin binding motif (EBM) contained in the juxtamembrane portions of ErbB2 or CD44 with the Ezrin FERM domain. For this purpose the Ezrin FERM domain in fusion with Glutathione-S-Transferase (GST) has been coupled to GSH-coated acceptor beads. […] The AlphaScreen® reagents (Glutathione-coated Acceptor beads and streptavidin-coated Donor beads) were obtained from PerkinElmer.
The reaction was performed using white 384-well Optiplates (PerkinElmer, Whalham, Mass., USA) in 20 μl (total reaction volume) in a reaction buffer containing PBS, pH 7.4, 5 mM MgCl2 and 0.02% CHAPS. […] 10 μl of a mix solution containing 20 μg/ml Glutathione-coated Acceptor beads and 20 μg/ml streptavidin-coated Donor beads was then added to the wells and incubation was further proceeded for 40 min or overnight in the dark and at room temperature. Light signal was detected with the EnVision® multilabel plate reader (PerkinElmer). All experiments involving AlphaScreen® beads were performed under subdued lighting.

In assay [2] the test system is BT474. Nature of the assay: MTT cell proliferation, BT474. It counts as cell-based, human. How it is done: We then analyzed the ability of ZU and EB1 and their derivatives to decrease the ErbB2-dependent cell proliferation.
SKBR3, BT474, MCF-7, MDA-MB-231 and HBMEC cells were treated with the compounds as indicated, and cell proliferation was determined each day during 3 days using an MTT assay. Non treated cells were included as a negative control.
A solution of ZU in cis conformation was mixed to a solution of ZU in trans conformation (1:1) to obtain ZU in a 50/50 cis/trans conformation and their respective effects on ErbB2 activation and ErbB2-dependent cell proliferation were analyzed as previously by dot blot analysis using an anti-phosphotyrosine antibody (clone 4G10) and by MTT assays in the ErbB2-overexpressing breast cancer cell line SKBR3, BT474, or HBMEC as a control.

For assay [3], the system named is BT474. In words: Soft agar colony formation, BT474. Format: cell-based, human. The conditions noted are these: 5 or 10 μM, 6 weeks. As to the method: A bottom layer of 0.8% agarose in DMEM supplemented with 20% SVF and penicillin/streptomycin was added to 24 well plates before seeding 25.10^3 SKBR3 or BT474 cells/well in a 0.6% agarose top layer. Cells were left untreated or treated with 5 or 10 μM ZU or EB1 or 5 μM AG1478 (a non-specific ErbB2 kinase inhibitor) as a positive control. Treatments were renewed 3 times a week. After 6 weeks, the number of colonies and their size were quantified using image J software. The colony formation is illustrated for each condition. Data are presented as mean±SEM.

A further assay addresses T2, V842I ErbB2 (Homo sapiens, UniProt P04626, V842I).
T2 construct: expressed in transfected cells; host or cells: HBMEC
In words: Western blot pY1248, V842I ErbB2 in transfected HBMECs. The conditions noted are these: 0, 5, 10 or 20 μM, 48 h. It counts as cell-based. As to the method: HBMECs cells were transfected with plasmids encoding WT, V777L or V842I and treated with 0, 5, 10 or 20 μM ZU or EB1 for 48 h. ErbB2 activation was then analyzed by western blot analysis using a phospho-ErbB2-specific antibody (pY1248) and a total ErbB2 antibody. Histograms show optical density quantification.

For the molecule `O=C1c2ccccc2[Se](=O)N1c1ccccc1` (stereo not drawn) [EB1, Ebselen oxide], the “inhibition of FERM/ErbB2 interaction” value in assay [1] turned out to be 43%. The pIC50 with BT474 [2] (Homo sapiens, BT-474) is 5.26. In the assay with BT474 [2] (Homo sapiens, BT-474, 72 h, day 3, read-out: Cell proliferation at d 3 BT474 EC50), the pEC50 is 5.26. In addition, the “Cell proliferation at d 3 BT474 Max inhibition, %” value with BT474 [2] (day 3) was 100%. Moreover, the “anchorage-independent growth of BT474 (in words)” value in the assay on BT474 [3] is recorded as “inhibited the anchorage-independent growth”. The “ErbB2 V842I activation (in words)” value at V842I ErbB2 was “potently decrease”.
